This note sets out measurements from BigSolDB 2.1.

By solubility (mole fraction) is commonly meant the moles of solute divided by all moles in the saturated solution. Regarding `Cc1ccc(N=C2SCC3CCCN2C3)cc1` (stereo not given), the solubility (mole fraction) came out at 0.0033 (in n-hexane, 293.15 K); 0.00465 (in n-hexane, 298.15 K); 0.00654 (in n-hexane, 303.15 K); 0.0104 (in n-hexane, 310.15 K); 0.0135 (in n-hexane, 315.15 K); 0.145 (in n-octanol, 293.15 K). Moreover, the solubility (mole fraction) runs as follows: (in n-octanol, 298.15 K) 0.157; (in n-octanol, 303.15 K) 0.171; (in n-octanol, 310.15 K) 0.193; (in n-octanol, 315.15 K) 0.209.
In the case of `N#Cc1ccc(N=C2SCC3CCCN2C3)cc1` (stereo not given), the solubility (mole fraction) amounted to 0.000223 (in n-hexane, 293.15 K); 0.000271 (in n-hexane, 298.15 K); 0.000337 (in n-hexane, 303.15 K); 0.000422 (in n-hexane, 310.15 K); 0.000523 (in n-hexane, 315.15 K); 0.0087 (in n-octanol, 293.15 K). Also, the solubility (mole fraction) stood at 0.0107 (in n-octanol, 298.15 K); 0.0131 (in n-octanol, 303.15 K); 0.0166 (in n-octanol, 310.15 K); 0.0202 (in n-octanol, 315.15 K).
For `Cc1ccc(N=C2SCC3CCCN2C3)cc1Cl` (stereo not given), the solubility (mole fraction) (in n-hexane, 293.15 K) amounted to 7.1e-05; the solubility (mole fraction) (in n-hexane, 298.15 K) came out at 8.71e-05; the solubility (mole fraction) (in n-hexane, 303.15 K) was 0.000106; the solubility (mole fraction) (in n-hexane, 310.15 K) worked out at 0.000134; the solubility (mole fraction) (in n-hexane, 315.15 K) worked out at 0.000161; the solubility (mole fraction) (in n-octanol, 293.15 K) is 0.00305. Further, the solubility (mole fraction) by setting is: (in n-octanol, 298.15 K) 0.00377; (in n-octanol, 303.15 K) 0.00454; (in n-octanol, 310.15 K) 0.00605; (in n-octanol, 315.15 K) 0.00736.
`CC(C)c1ccc(N=C2SCC3CCCN2C3)cc1` (stereo not given): the solubility (mole fraction) is, setting by setting: (in n-hexane, 293.15 K) 0.00135; (in n-hexane, 298.15 K) 0.00158; (in n-hexane, 303.15 K) 0.00195; (in n-hexane, 310.15 K) 0.00246; (in n-hexane, 315.15 K) 0.00288; (in n-octanol, 293.15 K) 0.143. The compound also displayed a solubility (mole fraction) (in n-octanol, 298.15 K) of 0.154; a solubility (mole fraction) (in n-octanol, 303.15 K) of 0.164; a solubility (mole fraction) (in n-octanol, 310.15 K) of 0.182; a solubility (mole fraction) (in n-octanol, 315.15 K) of 0.194.
`Fc1ccc(N=C2SCC3CCCN2C3)cc1` (stereo not given) returned a solubility (mole fraction) (in n-hexane, 293.15 K) of 0.0015; a solubility (mole fraction) (in n-hexane, 298.15 K) of 0.00187; a solubility (mole fraction) (in n-hexane, 303.15 K) of 0.00224; a solubility (mole fraction) (in n-hexane, 310.15 K) of 0.00294; a solubility (mole fraction) (in n-hexane, 315.15 K) of 0.00359; a solubility (mole fraction) (in n-octanol, 293.15 K) of 0.0245. The solubility (mole fraction) reads like this: (in n-octanol, 298.15 K) 0.0296; (in n-octanol, 303.15 K) 0.0354; (in n-octanol, 310.15 K) 0.0469; (in n-octanol, 315.15 K) 0.0567.
Turning to `CCc1ccc(N=C2SCC3CCCN2C3)cc1` (stereo not given), the solubility (mole fraction) amounted to 0.000225 (in n-hexane, 293.15 K); 0.000289 (in n-hexane, 298.15 K); 0.000382 (in n-hexane, 303.15 K); 0.000537 (in n-hexane, 310.15 K); 0.000673 (in n-hexane, 315.15 K); 0.0124 (in n-octanol, 293.15 K). Besides, the solubility (mole fraction) (in n-octanol, 298.15 K) stood at 0.0139; the solubility (mole fraction) (in n-octanol, 303.15 K) was 0.0163; the solubility (mole fraction) (in n-octanol, 310.15 K) worked out at 0.0194; the solubility (mole fraction) (in n-octanol, 315.15 K) was found to be 0.0224.
Consider `FC(F)(F)c1ccc(N=C2SCC3CCCN2C3)cc1` (stereo not given), for which the solubility (mole fraction) is, setting by setting: (in n-hexane, 293.15 K) 0.000248; (in n-hexane, 298.15 K) 0.000286; (in n-hexane, 303.15 K) 0.000339; (in n-hexane, 310.15 K) 0.000402; (in n-hexane, 315.15 K) 0.00046; (in n-octanol, 293.15 K) 0.0118. The solubility (mole fraction) by setting is: (in n-octanol, 298.15 K) 0.0132; (in n-octanol, 303.15 K) 0.0146; (in n-octanol, 310.15 K) 0.0171; (in n-octanol, 315.15 K) 0.0189.
As for `CC(=O)c1ccc(N=C2SCC3CCCN2C3)cc1` (stereo not given), the solubility (mole fraction) runs as follows: (in n-hexane, 293.15 K) 0.000144; (in n-hexane, 298.15 K) 0.000176; (in n-hexane, 303.15 K) 0.000215; (in n-hexane, 310.15 K) 0.00028; (in n-hexane, 315.15 K) 0.000344; (in n-octanol, 293.15 K) 0.0075. In addition, the solubility (mole fraction) (in n-octanol, 298.15 K) came out at 0.0093; the solubility (mole fraction) (in n-octanol, 303.15 K) stood at 0.0118; the solubility (mole fraction) (in n-octanol, 310.15 K) turned out to be 0.0156; the solubility (mole fraction) (in n-octanol, 315.15 K) was found to be 0.0202.
